The target of experiment [1] is purified human Factor XIa (Homo sapiens (Human), UniProt P03951). Description: biochemical. The experiment is classed as biochemical. Particulars: read-out: Factor XIa Ki.
The target of experiment [2] is purified human plasma kallikrein (Homo sapiens (Human), UniProt P03952). Description: biochemical. The experiment is classed as biochemical. Particulars: read-out: Plasma Kallikrein Ki.

Where a name gives a salt, the structure may show the parent alone. A value given as a limit tells only on which side of the number the result lay.

purified human Factor XIa, sequence (P03951 whole entry, looked up): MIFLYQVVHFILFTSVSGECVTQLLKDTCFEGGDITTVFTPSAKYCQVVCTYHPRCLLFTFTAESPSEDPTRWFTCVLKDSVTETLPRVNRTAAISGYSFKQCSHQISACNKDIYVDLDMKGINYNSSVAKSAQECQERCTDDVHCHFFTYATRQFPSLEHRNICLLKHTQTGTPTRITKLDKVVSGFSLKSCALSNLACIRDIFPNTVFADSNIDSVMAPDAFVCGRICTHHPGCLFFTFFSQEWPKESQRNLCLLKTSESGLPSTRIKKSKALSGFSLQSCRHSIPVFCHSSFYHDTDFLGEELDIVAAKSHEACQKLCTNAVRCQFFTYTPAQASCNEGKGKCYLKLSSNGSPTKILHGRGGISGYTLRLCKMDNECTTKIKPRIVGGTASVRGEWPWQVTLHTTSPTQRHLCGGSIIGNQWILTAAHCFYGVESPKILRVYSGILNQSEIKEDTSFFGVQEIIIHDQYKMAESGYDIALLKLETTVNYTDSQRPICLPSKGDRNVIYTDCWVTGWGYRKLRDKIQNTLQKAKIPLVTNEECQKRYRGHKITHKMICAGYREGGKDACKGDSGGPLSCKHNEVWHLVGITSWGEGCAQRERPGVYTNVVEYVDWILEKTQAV
purified human Factor XIa, sequence (P03951 whole entry partner, looked up): as the sequence (P03951 whole entry, looked up) above
purified human plasma kallikrein, sequence (P03952 whole entry, looked up): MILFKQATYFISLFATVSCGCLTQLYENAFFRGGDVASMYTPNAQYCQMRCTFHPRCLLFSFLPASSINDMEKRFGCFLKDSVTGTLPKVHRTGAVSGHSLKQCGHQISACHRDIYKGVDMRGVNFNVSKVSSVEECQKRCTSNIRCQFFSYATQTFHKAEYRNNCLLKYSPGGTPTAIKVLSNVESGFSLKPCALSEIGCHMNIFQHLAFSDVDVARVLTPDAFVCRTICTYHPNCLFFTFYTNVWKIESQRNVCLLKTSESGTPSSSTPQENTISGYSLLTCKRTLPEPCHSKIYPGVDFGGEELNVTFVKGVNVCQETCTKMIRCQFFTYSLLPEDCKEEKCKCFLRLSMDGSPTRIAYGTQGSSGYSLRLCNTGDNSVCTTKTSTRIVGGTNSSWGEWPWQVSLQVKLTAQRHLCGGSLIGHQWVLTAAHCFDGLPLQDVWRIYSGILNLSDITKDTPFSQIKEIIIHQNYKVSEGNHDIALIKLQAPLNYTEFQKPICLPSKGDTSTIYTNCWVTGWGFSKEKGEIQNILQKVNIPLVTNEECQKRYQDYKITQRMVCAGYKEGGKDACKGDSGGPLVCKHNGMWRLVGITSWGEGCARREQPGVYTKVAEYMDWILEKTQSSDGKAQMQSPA
purified human plasma kallikrein, sequence (P03952 whole entry partner, looked up): as the sequence (P03952 whole entry, looked up) above

The term Ki denotes the dissociation constant of the complex between target and ligand, obtained from inhibition or displacement. Consider `COC(=O)Nc1ccc2c(c1)NC(=O)[C@H](C)CCC[C@H](n1ncc(-c3c(F)ccc(Cl)c3F)cc1=O)c1cc-2ccn1` [Example 11, Methyl N-[(10R,14S)-14-[4-(3-chloro-2,6-difluorophenyl)-6-oxo-1,6-dihydropyridazin-1-yl]-10-methyl-9-oxo-8,16-diazatricyclo[13.3.1.0^2,7]nonadeca-1(19),2(7),3,5,15,17-hexaen-5-yl]carbamate, TFA salt], for which the inhibition constant Ki was 6.77 nM in experiment [1] and 14 nM in experiment [2].
For `C[C@@H]1CCC[C@H](N2CCC(c3c(F)ccc(Cl)c3F)=CC2=O)c2cc(ccn2)-c2ccccc2NC1=O` [Example 13, (10R,14S)-14-[4-(3-Chloro-2,6-difluorophenyl)-6-oxo-1,2,3,6-tetrahydropyridin-1-yl]-10-methyl-8,16-diazatricyclo[13.3.1.0^2,7]nonadeca-1(19),2,4,6,15,17-hexaen-9-one] the same measures were 13.7 nM and 8 nM.
On the same counts, the results for `C[C@@H]1CCC[C@H](N2CCC(c3c(F)ccc(Cl)c3F)=CC2=O)c2cc(ccn2)-c2ccc(Nc3ncccn3)cc2NC1=O` [Example 16, (10R,14S)-14-[4-(3-Chloro-2,6-difluorophenyl)-6-oxo-1,2,3,6-tetrahydropyridin-1-yl]-10-methyl-5-[(pyrimidin-2-yl)amino]-8,16-diazatricyclo[13.3.1.0^2,7]nonadeca-1(19),2(7),3,5,15,17-hexaen-9-one, 2 TFA salt] are 1.15 nM and 1 nM.
For `COc1ccc2c(c1)NC(=O)[C@H](C)CCC[C@H](N1CCC(c3c(F)ccc(Cl)c3F)=CC1=O)c1cc-2ccn1` [Example 17, (10R,14S)-14-[4-(3-chloro-2,6-difluorophenyl)-6-oxo-1,2,3,6-tetrahydropyridin-1-yl]-5-methoxy-10-methyl-8,16-diazatricyclo[13.3.1.0^2,7]nonadeca-1(19),2,4,6,15,17-hexaen-9-one, TFA salt] the same measures were 45.3 nM and 114 nM.
Take `C[C@@H]1CCC[C@H](N2CCC(c3c(F)ccc(Cl)c3F)=CC2=O)c2cc(ccn2)-c2cc(Cl)c(O)cc2NC1=O` [Example 19, (10R,14S)-4-Chloro-14-[4-(3-chloro-2,6-difluorophenyl)-6-oxo-1,2,3,6-tetrahydropyridin-1-yl]-5-hydroxy-10-methyl-8,16-diazatricyclo[13.3.1.0^2,7]nonadeca-1(19),2,4,6,15,17-hexaen-9-one, TFA salt]: the inhibition constant (Ki) in experiment [1] was 15.5 nM; in experiment [2], 52 nM.
For the molecule `Cc1nnc(Nc2ccc3c(c2)NC(=O)[C@H](C)CCC[C@H](N2CCC(c4c(F)ccc(Cl)c4F)=CC2=O)c2cc-3ccn2)o1` [Example 21, (10R,14S)-14-[4-(3-Chloro-2,6-difluorophenyl)-6-oxo-1,2,3,6-tetrahydropyridin-1-yl]-10-methyl-5-[(5-methyl-1,3,4-oxadiazol-2-yl)amino]-8,16-diazatricyclo[13.3.1.0^2,7]nonadeca-1(19),2(7),3,5,15,17-hexaen-9-one, TFA salt], the Ki was found to be 0.46 nM in experiment [1] and 1 nM in experiment [2].
On the same counts, the results for `COC(=O)Nc1ccc2c(c1)NC(=O)[C@H](C)CC(=O)C[C@H](N1CCC(c3c(F)ccc(Cl)c3F)=CC1=O)c1cc-2ccn1` [Example 22, Methyl N-[(10R,14S)-14-[4-(3-chloro-2,6-difluorophenyl)-6-oxo-1,2,3,6-tetrahydropyridin-1-yl]-10-methyl-9,12-dioxo-8,16-diazatricyclo[13.3.1.0^2,7]nonadeca-1(19),2,4,6,15,17-hexaen-5-yl]carbamate, TFA salt] are more than 438 nM and 352 nM.
With `COC(=O)Nc1ccc2c(c1)C(=O)NCCCC[C@H](N1CCC(c3c(F)ccc(Cl)c3F)=CC1=O)c1cc-2ccn1` [Example 24, Methyl N-[(14S)-14-[4-(3-chloro-2,6-difluorophenyl)-6-oxo-1,2,3,6-tetrahydropyridin-1-yl]-8-oxo-9,16-diazatricyclo[13.3.1.0^2,7]nonadeca-1(19),2(7),3,5,15,17-hexaen-5-yl]carbamate, TFA salt], the inhibition constant (Ki) in experiment [1] is 270 nM; in experiment [2] it was 214 nM.
Turning to `COC(=O)Nc1ccc2c(c1)NC(=O)[C@H](C)CCC[C@H](N1CCC(c3c(C(F)(F)F)ccc(Cl)c3F)=CC1=O)c1cc-2ccn1` [Example 25, Methyl N-[(10R,14S)-14-{4-[3-chloro-2-fluoro-6-(trifluoromethyl)phenyl]-6-oxo-1,2,3,6-tetrahydropyridin-1-yl}-10-methyl-9-oxo-8,16-diazatricyclo[13.3.1.0^2,7]nonadeca-1(19),2,4,6,15,17-hexaen-5-yl]carbamate, TFA salt], the figures for the Ki in experiment [1] and in experiment [2] were 0.1 nM and 12 nM, respectively.
Consider `COC(=O)Nc1ccc2c(c1)NC(=O)[C@H](C)CCC[C@H](N1CCC(c3c(C#N)ccc(Cl)c3F)=CC1=O)c1cc-2cc(OC)n1` [Example 26, Methyl N-[(10R,14S)-14-[4-(3-chloro-6-cyano-2-fluorophenyl)-6-oxo-1,2,3,6-tetrahydropyridin-1-yl]-17-methoxy-10-methyl-9-oxo-8,16-diazatricyclo[13.3.1.0^2,7]nonadeca-1(18),2,4,6,15(19),16-hexaen-5-yl]carbamate], for which the Ki was 0.09 nM in experiment [1] and 1 nM in experiment [2].
Consider `C[C@@H]1CCC[C@H](N2CCC(c3c(Br)ccc(Cl)c3F)=CC2=O)c2cc(ccn2)-c2ccc(C(=O)O)cc2NC1=O` [Example 28, (14S)-14-[4-(6-Bromo-3-chloro-2-fluorophenyl)-6-oxo-1,2,3,6-tetrahydropyridin-1-yl]-10-methyl-9-oxo-8,16-diazatricyclo[13.3.1.0^2,7]nonadeca-1(19),2(7),3,5,15,17-hexaene-5-carboxylic acid, TFA salt], for which the Ki in experiment [1] was more than 443 nM; in experiment [2] it was 196 nM.
Turning to `C[C@@H]1CCC[C@H](N2CCC(c3c(Br)ccc(Cl)c3F)=CC2=O)c2cc(ccn2)-c2ccc(C(N)=O)cc2NC1=O` [Example 29, (14S)-14-[4-(6-Bromo-3-chloro-2-fluorophenyl)-6-oxo-1,2,3,6-tetrahydropyridin-1-yl]-10-methyl-9-oxo-8,16-diazatricyclo[13.3.1.0^2,7]nonadeca-1(19),2(7),3,5,15,17-hexaene-5-carboxamide, TFA salt], the Ki turned out to be 2.88 nM in experiment [1] and 3 nM in experiment [2].
`COC(=O)Nc1ccc2c(c1)NC(=O)[C@H](C)CCC[C@H](N1CCC(c3c(C#N)ccc(Cl)c3F)=CC1=O)c1cc-2cc(=O)[nH]1` [Example 30, Methyl N-[(10R,14S)-14-[4-(3-chloro-6-cyano-2-fluorophenyl)-6-oxo-1,2,3,6-tetrahydropyridin-1-yl]-10-methyl-9,17-dioxo-8,16-diazatricyclo[13.3.1.0^2,7]nonadeca-1(18),2,4,6,15(19)-pentaen-5-yl]carbamate, TFA salt]: the Ki in experiment [1] worked out at 0.21 nM; in experiment [2] it was 3 nM.
On the same counts, the results for `COC(=O)Nc1ccc2c(c1)NC(=O)[C@H](C)CCC[C@H](N1CCC(c3c(OC(F)F)ccc(Cl)c3F)=CC1=O)c1ccnc-2c1` [Example 31, Methyl N-[(10R,14S)-14-{4-[3-chloro-6-(difluoromethoxy)-2-fluorophenyl]-6-oxo-1,2,3,6-tetrahydropyridin-1-yl}-10-methyl-9-oxo-8,18-diazatricyclo[13.3.1.0^2,7]nonadeca-1(19),2,4,6,15,17-hexaen-5-yl]carbamate, TFA salt] are 0.04 nM and 3 nM.

(Values after patent US9409908B2 (priority 2012, dated 2016).)
